Drawing on patent US8575156B2, “Cyclic inhibitors of 11β-hydroxysteroid dehydrogenase 1” (Vitae Pharmaceuticals, Inc., priority 2007, dated 2013), this text covers inhibition and IC50 for 34 compounds.

The target in the assay is 11β-HSD1 (Homo sapiens, UniProt P28845). The assay can be described thus: biochemical. As to conditions: for IC50: IC50 Range, Biological Test Example 1, microsomes from CHO cells overexpressing human 11β-HSD1; for inhibition at 0.1 µM: read-out: Average % inhibition at 100 nM, Biological Test Example 1, 100 nM compound.
Where [1] appears, read: read-out: Average % inhibition at 111.1 nM, Biological Test Example 1, 111.1 nM compound.
[2] abbreviates: read-out: Average % inhibition at 111.1 nM.

Where two headings read alike, the source gives them in different places. Some results are limits rather than exact numbers.

Chain of 11β-HSD1 (P28845 whole entry): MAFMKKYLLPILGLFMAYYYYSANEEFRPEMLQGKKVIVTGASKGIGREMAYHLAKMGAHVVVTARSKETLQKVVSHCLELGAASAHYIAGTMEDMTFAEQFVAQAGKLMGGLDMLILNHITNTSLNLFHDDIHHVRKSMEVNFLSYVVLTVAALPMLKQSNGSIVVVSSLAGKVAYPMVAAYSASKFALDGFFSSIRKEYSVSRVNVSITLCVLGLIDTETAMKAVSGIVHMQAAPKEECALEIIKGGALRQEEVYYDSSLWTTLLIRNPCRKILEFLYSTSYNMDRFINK

For `CC1(c2ccccc2)CCN(c2cccc(-c3ccncc3)c2)C(=O)O1` (stereo not drawn) [EXAMPLE 33, 6-methyl-6-phenyl-3-(3-(pyridin-4-yl)phenyl)-1,3-oxazinan-2-one], under setting [1], the inhibition (as a rule, the drop in the measured response relative to a control, in per cent) at 0.1111 µM is 37.1%.

Take `COc1cccc(-c2cccc(N3CCC(C)(c4ccccc4)OC3=O)c2)c1` (stereo not drawn) [EXAMPLE 34, 3-(3′-methoxybiphenyl-3-yl)-6-methyl-6-phenyl-1,3-oxazinan-2-one]: the IC50 (as a rule, the point on the concentration scale where inhibition reaches its midpoint) is under 100 nM. In addition, the inhibition at 0.1111 µM under setting [1] turned out to be 72%.

In turn, `CC1(c2ccccc2)CCN(c2cccc(-c3ccccc3CO)c2)C(=O)O1` (stereo not drawn) [EXAMPLE 35, 3-(2′-(hydroxymethyl)biphenyl-3-yl)-6-methyl-6-phenyl-1,3-oxazinan-2-one] returned an IC50 of 100 to 1000 nM. The inhibition at 0.1111 µM under setting [1] came to 26.7%.

The compound `CC1(c2ccccc2)CCN(c2cccc(-c3cccs3)c2)C(=O)O1` (stereo not drawn) [EXAMPLE 36, 6-methyl-6-phenyl-3-(3-(thiophen-2-yl)phenyl)-1,3-oxazinan-2-one] registered an IC50 of under 100 nM. Under setting [1], the inhibition at 0.1111 µM was determined as 63.3%.

As for `COC(=O)c1cccc(-c2cccc(N3CCC(C)(c4ccccc4)OC3=O)c2)c1` (stereo not drawn) [EXAMPLE 38, methyl 3′-(6-methyl-2-oxo-6-phenyl-1,3-oxazinan-3-yl)biphenyl-3-carboxylate], the IC50 lay in the range of 100 to 1000 nM. Besides, under setting [1], the inhibition at 0.1111 µM came to 17.8%.

`CC1(c2ccccc2)CCN(c2cccc(-c3cccc(CO)c3)c2)C(=O)O1` (stereo not drawn) [EXAMPLE 39, 3-(3′-(hydroxymethyl)biphenyl-3-yl)-6-methyl-6-phenyl-1,3-oxazinan-2-one]: the IC50 was 100 to 1000 nM. Moreover, the inhibition at 0.1111 µM under setting [1] amounted to 24.8%.

Turning to `CC1(c2ccccc2)CCN(c2cccc(-c3cccc(S(C)(=O)=O)c3)c2)C(=O)O1` (stereo not drawn) [EXAMPLE 40, 6-methyl-3-(3′-(methylsulfonyl)biphenyl-3-yl)-6-phenyl-1,3-oxazinan-2-one], the IC50 fell in the range of 100 to 1000 nM. For the same compound, the inhibition at 0.1111 µM under setting [1] was determined as 28.8%.

As for `CC(=O)NCc1cccc(-c2cccc(N3CCC(C)(c4ccccc4)OC3=O)c2)c1` (stereo not drawn) [EXAMPLE 41, N-((3′-(6-methyl-2-oxo-6-phenyl-1,3-oxazinan-3-yl)biphenyl-3-yl)methyl)acetamide], the IC50 lay within 100 to 1000 nM. Also, the inhibition at 0.1111 µM under setting [1] came to 19.9%.

Consider `CN(C)C(=O)c1ccc(-c2cccc(N3CCC(C)(c4ccccc4)OC3=O)c2)cc1` (stereo not drawn) [EXAMPLE 42, N,N-dimethyl-3′-(6-methyl-2-oxo-6-phenyl-1,3-oxazinan-3-yl)biphenyl-4-carboxamide], for which the half-maximal inhibitory concentration (IC50) lay within 100 to 1000 nM. Further, the inhibition at 0.1111 µM under setting [1] was 36.7%.

`CC1(c2ccccc2)CCN(c2cccc(-c3ccc(O)cc3)c2)C(=O)O1` (stereo not drawn) [EXAMPLE 43, 3-(4′-hydroxybiphenyl-3-yl)-6-methyl-6-phenyl-1,3-oxazinan-2-one]: the IC50 was under 100 nM. Further, the inhibition at 0.1111 µM under setting [1] came to 77.7%.

`CC1(c2ccccc2)CCN(c2cccc(-c3ccc(C(N)=O)cc3)c2)C(=O)O1` (stereo not drawn) [EXAMPLE 44, 3′-(6-methyl-2-oxo-6-phenyl-1,3-oxazinan-3-yl)biphenyl-4-carboxamide] showed an IC50 of 100 to 1000 nM. Moreover, the inhibition at 0.1111 µM under setting [1] amounted to 35%.

`CC1(c2ccccc2)CCN(c2cccc(-c3ccccc3NS(C)(=O)=O)c2)C(=O)O1` (stereo not drawn) [EXAMPLE 45, N-(3′-(6-methyl-2-oxo-6-phenyl-1,3-oxazinan-3-yl)biphenyl-2-yl)methanesulfonamide]: the IC50 lay within 100 to 1000 nM. In addition, the inhibition at 0.1111 µM under setting [1] was 31.2%.

In turn, `COC(=O)c1ccc(-c2cccc(N3CCC(C)(c4ccccc4)OC3=O)c2)cc1` (stereo not drawn) [EXAMPLE 46, methyl 3′-(6-methyl-2-oxo-6-phenyl-1,3-oxazinan-3-yl)biphenyl-4-carboxylate] showed an IC50 of 100 to 1000 nM. In addition, the inhibition at 0.1111 µM under setting [1] is 46.4%.

For `CNS(=O)(=O)c1ccc(-c2cccc(N3CCC(C)(c4ccccc4)OC3=O)c2)cc1` (stereo not drawn) [EXAMPLE 47, N-methyl-3′-(6-methyl-2-oxo-6-phenyl-1,3-oxazinan-3-yl)biphenyl-4-sulfonamide], the IC50 is 100 to 1000 nM. Under setting [1], the inhibition at 0.1111 µM came out at 36.3%.

Regarding `CC1(c2ccccc2)CCN(c2cccc(-c3ccc(CO)cc3)c2)C(=O)O1` (stereo not drawn) [EXAMPLE 48, 3-(4′-(hydroxymethyl)biphenyl-3-yl)-6-methyl-6-phenyl-1,3-oxazinan-2-one], the IC50 lay in the range of 100 to 1000 nM. Under setting [1], the inhibition at 0.1111 µM was 37%.

For the compound `CC1(c2ccccc2)CCN(c2cccc(-c3cccc(-c4nnn[nH]4)c3)c2)C(=O)O1` (stereo not drawn) [EXAMPLE 49, 3-(3′-(1H-tetrazol-5-yl)biphenyl-3-yl)-6-methyl-6-phenyl-1,3-oxazinan-2-one], the IC50 fell in the range of 100 to 1000 nM. In addition, the inhibition at 0.1111 µM under setting [1] came to 15.4%.

`O=C1OC(CCO)(c2ccccc2F)CCN1c1cccc(-c2ccc(F)cc2Cl)n1` (stereo not drawn) [EXAMPLE 50, 3-(6-(2-chloro-4-fluorophenyl)pyridin-2-yl)-6-(2-fluorophenyl)-6-(2-hydroxyethyl)-1,3-oxazinan-2-one] had an IC50 of under 100 nM. For the same compound, the inhibition at 0.1111 µM under setting [1] was 96.3%.

Consider `C[C@@H](c1ccc(-c2ccc(F)cc2F)cc1)N1CC[C@](CC(O)CO)(c2ccc(F)cc2)OC1=O` (stereo partly drawn) [EXAMPLE 52, (6S)-3-((S)-1-(2′,4′-difluorobiphenyl-4-yl)ethyl)-6-(2,3-dihydroxypropyl)-6-(4-fluorophenyl)-1,3-oxazinan-2-one], for which the IC50 is under 100 nM and the inhibition at 0.1 µM was 98.6%.

`CC1(c2cccc(Cl)c2)CCN(c2cccc(N3CCCCC3)n2)C(=O)O1` (stereo not drawn) [EXAMPLE 53, 6-(3-chlorophenyl)-6-methyl-3-(6-(piperidin-1-yl)pyridin-2-yl)-1,3-oxazinan-2-one] had an IC50 of under 100 nM. The inhibition at 0.1111 µM under setting [2] worked out at 57.1%.

As to `CC1(c2ccccc2)CCN(c2ccnc(-c3ccc(F)cc3)n2)C(=O)O1` (stereo not drawn) [EXAMPLE 55, 3-(2-(4-fluorophenyl)pyrimidin-4-yl)-6-methyl-6-phenyl-1,3-oxazinan-2-one], the IC50 was 100 to 1000 nM. In addition, under setting [2], the inhibition at 0.1111 µM was 3.7%.

In turn, `CC1(c2ccccc2)CCN(c2ccnc(-c3cccc(F)c3)n2)C(=O)O1` (stereo not drawn) [EXAMPLE 56, 3-(2-(3-fluorophenyl)pyrimidin-4-yl)-6-methyl-6-phenyl-1,3-oxazinan-2-one] returned an IC50 of 100 to 1000 nM. Besides, the inhibition at 0.1111 µM under setting [2] turned out to be 5.6%.

`CC1(c2ccccc2)CCN(c2nccc(Cl)n2)C(=O)O1` (stereo not drawn) [EXAMPLE 57, 3-(4-chloropyrimidin-2-yl)-6-methyl-6-phenyl-1,3-oxazinan-2-one] gave a 50% inhibitory concentration (IC50) of 100 to 1000 nM. For the same compound, under setting [2], the inhibition at 0.1111 µM came to 10.4%.

Compound `CC1(c2ccccc2)CCN(c2nccc(-c3cccc(Cl)c3)n2)C(=O)O1` (stereo not drawn) [EXAMPLE 58, 3-(4-(3-chlorophenyl)pyrimidin-2-yl)-6-methyl-6-phenyl-1,3-oxazinan-2-one] gave an IC50 of 100 to 1000 nM. For the same compound, under setting [1], the inhibition at 0.1111 µM is 34.8%.

With `CC1(c2ccccc2)CCN(c2nccc(-c3ccc(F)cc3F)n2)C(=O)O1` (stereo not drawn) [EXAMPLE 59, 3-(4-(2,4-difluorophenyl)pyrimidin-2-yl)-6-methyl-6-phenyl-1,3-oxazinan-2-one], the IC50 was in the range of 100 to 1000 nM. In addition, the inhibition at 0.1111 µM under setting [1] is 18%.

The compound `CC1(c2ccccc2)CCN(c2nccc(-c3c(Cl)cccc3Cl)n2)C(=O)O1` (stereo not drawn) [EXAMPLE 60, 3-(4-(2,6-dichlorophenyl)pyrimidin-2-yl)-6-methyl-6-phenyl-1,3-oxazinan-2-one] returned an IC50 of 100 to 1000 nM. Also, the inhibition at 0.1111 µM under setting [1] was determined as 51.3%.

As to `CC1(c2ccccc2)CCN(c2nccc(-c3ccc(F)cc3)n2)C(=O)O1` (stereo not drawn) [EXAMPLE 61, 3-(4-(4-fluorophenyl)pyrimidin-2-yl)-6-methyl-6-phenyl-1,3-oxazinan-2-one], the IC50 was in the range of 100 to 1000 nM. The inhibition at 0.1111 µM under setting [1] is 17.7%.

In turn, `CC1(c2ccccc2)CCN(c2nccc(-c3cccc(F)c3)n2)C(=O)O1` (stereo not drawn) [EXAMPLE 62, 3-(4-(3-fluorophenyl)pyrimidin-2-yl)-6-methyl-6-phenyl-1,3-oxazinan-2-one] displayed an IC50 of 100 to 1000 nM. In addition, the inhibition at 0.1111 µM under setting [1] was determined as 20.5%.

`C=CCC1(c2ccccc2)CCN(c2cccc(Br)c2)C(=O)O1` (stereo not drawn) [EXAMPLE 63, 6-allyl-3-(3-bromophenyl)-6-phenyl-1,3-oxazinan-2-one] yielded an IC50 of under 100 nM. Besides, the inhibition at 0.1111 µM under setting [1] amounted to 59%.

For the compound `O=C1OC(CCO)(c2ccccc2F)CCN1c1ccc(F)c(-c2ccc(F)cc2)c1` (stereo not drawn) [EXAMPLE 67, 3-(4′,6-difluorobiphenyl-3-yl)-6-(2-fluorophenyl)-6-(2-hydroxyethyl)-1,3-oxazinan-2-one], the IC50 was under 100 nM and the inhibition at 0.1 µM worked out at 93.1%. Also, under setting [1], the inhibition at 0.1111 µM stood at 96.6%.

Consider `O=C1OC(CCO)(c2ccccc2)CCN1c1cccc(-c2ccc(F)cc2Cl)c1` (stereo not drawn) [EXAMPLE 68, 3-(2′-chloro-4′-fluorobiphenyl-3-yl)-6-(2-hydroxyethyl)-6-phenyl-1,3-oxazinan-2-one], for which the IC50 is under 100 nM and the inhibition at 0.1 µM came out at 92%. For the same compound, the inhibition at 0.1111 µM under setting [1] was 92.9%.

Regarding `O=C1OC(CCO)(c2ccccc2)CCN1c1cccc(-c2c(Cl)cccc2Cl)c1` (stereo not drawn) [EXAMPLE 69, 3-(2′,6′-dichlorobiphenyl-3-yl)-6-(2-hydroxyethyl)-6-phenyl-1,3-oxazinan-2-one], the IC50 is under 100 nM and the inhibition at 0.1 µM came out at 94.7%. Besides, the inhibition at 0.1111 µM under setting [1] was found to be 94.8%.

`O=C(O)CC1(c2ccccc2)CCN(c2cccc(-c3ccc(F)cc3F)c2)C(=O)O1` (stereo not drawn) [EXAMPLE 70, 2-(3-(2′,4′-difluorobiphenyl-3-yl)-2-oxo-6-phenyl-1,3-oxazinan-6-yl)acetic acid] came in with an IC50 of 100 to 1000 nM. For the same compound, under setting [1], the inhibition at 0.1111 µM is 9.3%.

The compound `CC1(c2ccccc2)CCN(Cc2cccc(Br)c2)C(=O)O1` (stereo not drawn) [EXAMPLE 71, 3-(3-bromobenzyl)-6-methyl-6-phenyl-1,3-oxazinan-2-one] showed an IC50 of 100 to 1000 nM.

`CC1(c2ccccc2)CCN(Cc2ccccc2Br)C(=O)O1` (stereo not drawn) [EXAMPLE 72, 3-(2-bromobenzyl)-6-methyl-6-phenyl-1,3-oxazinan-2-one] came in with an IC50 of under 100 nM. For the same compound, the inhibition at 0.1111 µM under setting [1] stood at 77.5%.
